The results in this text go back to ChEMBL document CHEMBL4033668, “Inhibitors of cytochrome P450 (CYP) 1B1” (Eur J Med Chem, 2017).

For data set [1], the target named is T1, Cytochrome P450 1B1 (Homo sapiens, UniProt Q16678).
T1 sequence (Q16678 whole entry): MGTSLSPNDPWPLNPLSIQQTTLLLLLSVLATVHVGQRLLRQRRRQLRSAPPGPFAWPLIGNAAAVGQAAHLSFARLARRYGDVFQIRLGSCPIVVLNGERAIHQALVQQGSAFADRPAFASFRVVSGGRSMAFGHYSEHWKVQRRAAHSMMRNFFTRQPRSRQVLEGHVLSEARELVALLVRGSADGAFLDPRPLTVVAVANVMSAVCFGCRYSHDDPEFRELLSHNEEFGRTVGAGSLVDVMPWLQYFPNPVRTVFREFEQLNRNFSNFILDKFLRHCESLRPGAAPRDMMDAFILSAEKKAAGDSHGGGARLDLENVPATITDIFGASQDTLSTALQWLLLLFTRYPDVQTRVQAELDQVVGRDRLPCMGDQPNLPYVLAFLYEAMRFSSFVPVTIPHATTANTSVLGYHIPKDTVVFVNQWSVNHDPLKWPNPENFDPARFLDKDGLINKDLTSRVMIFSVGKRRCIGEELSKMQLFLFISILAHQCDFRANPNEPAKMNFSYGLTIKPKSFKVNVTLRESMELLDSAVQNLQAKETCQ
Kind of data set: Inhibition of human CYP1B1 expressed in Escherichia coli DH5alpha coexpressing human NADPH P450 reductase using 7-ethoxyresorufin as substrate in presence of NADP+ by spectrofluorometeric analysis.

The target in data set [2] is T1, Cytochrome P450 1B1. As to the kind of experiment: (§1) Inhibition of CYP1B1 (unknown origin) expressed in Escherichia coli DH5alpha coexpressing human NADPH P450 reductase using 7-ethoxyresorufin as substrate after 2 to 6 mins in presence of NADPH by double reciprocal plot analysis.
For data set [3], the target named is T2, CYP1B1 (Homo sapiens, UniProt Q16678).
T2 sequence (Q16678 whole entry): T1 sequence (Q16678 whole entry)
The description is as §1. As to conditions: human, probe 7-ethoxyresorufin.

Data set [4] addresses T1, Cytochrome P450 1B1. Kind of data set: Inhibition of recombinant CYP1B1 (unknown origin) expressed in supersomes coexpressing NADPH-CYP reductase using 7-ethoxyresorufin as substrate after 15 mins in presence of NADP+ by Lineweaver-Burk plot analysis.
Data set [5] deals with T1, Cytochrome P450 1B1. Kind of data set: Inhibition of recombinant CYP1B1 (unknown origin) expressed in supersomes coexpressing NADPH-CYP reductase using 7-ethoxyresorufin as substrate after 15 mins in presence of NADP+ by fluorescence spectrophotometric analysis.
Data set [6] concerns the target T1, Cytochrome P450 1B1. Kind of data set: Inhibition of CYP1B1 (unknown origin) expressed in Escherichia coli DH5alpha coexpressing human NADPH-P450 reductase using 7-Ethoxyresorufin as substrate up to 6 mins in presence of NADP+ by spectrofluorometric analysis.
Data set [7] concerns the target T1, Cytochrome P450 1B1. As to the kind of experiment: Competitive inhibition of CYP1B1 (unknown origin) expressed in yeast microsomes using (-)benzo[a]pyrene-7R-trans-7,8-dihyrodiol (B[a]P-7,8-diol) as substrate.
Data set [8] deals with T3, Cytochrome P450 1A2 (Homo sapiens, UniProt P05177).
T3 sequence (P05177 whole entry): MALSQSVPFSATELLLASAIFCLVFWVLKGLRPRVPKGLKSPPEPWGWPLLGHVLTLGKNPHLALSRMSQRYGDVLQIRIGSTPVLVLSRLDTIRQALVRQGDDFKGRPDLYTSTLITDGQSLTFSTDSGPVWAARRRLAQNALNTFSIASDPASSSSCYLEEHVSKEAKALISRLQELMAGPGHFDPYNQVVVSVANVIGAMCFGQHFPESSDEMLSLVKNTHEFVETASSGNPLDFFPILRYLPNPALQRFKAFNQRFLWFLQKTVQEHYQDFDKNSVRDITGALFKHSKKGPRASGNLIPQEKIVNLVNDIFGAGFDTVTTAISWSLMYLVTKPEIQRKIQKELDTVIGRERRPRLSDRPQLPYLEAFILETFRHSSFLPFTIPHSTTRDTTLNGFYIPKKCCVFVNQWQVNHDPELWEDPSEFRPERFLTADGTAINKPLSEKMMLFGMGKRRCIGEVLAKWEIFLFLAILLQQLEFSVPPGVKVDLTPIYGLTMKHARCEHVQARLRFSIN
As to the kind of experiment: Inhibition of CYP1A2 (unknown origin) expressed in Escherichia coli DH5alpha coexpressing human NADPH-P450 reductase using 7-Ethoxyresorufin as substrate up to 6 mins in presence of NADP+ by spectrofluorometric analysis. It counts as ADME.

Data set [9] concerns the target T4, Cytochrome P450 1A1 (Homo sapiens, UniProt P04798).
T4 sequence (P04798 whole entry): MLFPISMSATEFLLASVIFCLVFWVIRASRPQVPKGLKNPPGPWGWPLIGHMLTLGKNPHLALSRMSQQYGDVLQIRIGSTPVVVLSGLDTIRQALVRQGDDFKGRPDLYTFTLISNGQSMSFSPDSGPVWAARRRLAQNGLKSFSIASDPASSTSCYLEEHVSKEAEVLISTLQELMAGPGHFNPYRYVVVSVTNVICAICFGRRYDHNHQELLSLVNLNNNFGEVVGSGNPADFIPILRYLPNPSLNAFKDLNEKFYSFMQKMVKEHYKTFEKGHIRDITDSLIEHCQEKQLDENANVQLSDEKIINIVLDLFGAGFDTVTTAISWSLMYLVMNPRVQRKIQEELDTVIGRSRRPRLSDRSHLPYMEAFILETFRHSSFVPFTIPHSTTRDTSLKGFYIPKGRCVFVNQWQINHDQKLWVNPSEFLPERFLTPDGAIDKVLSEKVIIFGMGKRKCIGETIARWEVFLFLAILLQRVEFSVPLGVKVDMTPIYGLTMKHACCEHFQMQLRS
Kind of data set: Inhibition of CYP1A1 (unknown origin) expressed in Escherichia coli DH5alpha coexpressing human NADPH-P450 reductase using 7-Ethoxyresorufin as substrate up to 6 mins in presence of NADP+ by spectrofluorometric analysis. The format is ADME.

Data set [10] deals with T1, Cytochrome P450 1B1. As to the kind of experiment: Inhibition of CYP1B1 in […] recombinant human cytochrome P450 oxidoreductase using 7-ethoxyresorufin as substrate after 3 mins in presence of NADP+ by fluorescence assay. (Liver microsomes are a subcellular fraction often used to study metabolism.)
In data set [11] the target is T1, Cytochrome P450 1B1. Kind of data set: Inhibition of human CYP1B1 expressed in Escherichia coli DH5alpha coexpressing human NADPH-P450 reductase using 4-estradiol as substrate in presence of NADP+ by HPLC analysis.
Data set [12] concerns the target T1, Cytochrome P450 1B1. As to the kind of experiment: Inhibition of human CYP1B1 expressed in Escherichia coli DH5alpha coexpressing human NADPH P450 reductase using 7-ethoxyresorufin as substrate in presence of NADP+ by fluorimetric analysis.
Data set [13] concerns the target T1, Cytochrome P450 1B1. Kind of data set: Inhibition of recombinant human CYP1B1 expressed in Escherichia coli coexpressing human NADPH-cytochrome P450 reductase using 7-ethoxyresorufin as substrate by fluorescence spectrophotometric analysis.
Data set [14] is filed under the species Homo sapiens. Kind of data set: Selectivity index, ratio of IC50 for recombinant human CYP1A1 expressed in Escherichia coli coexpressing human NADPH-cytochrome P450 reductase to IC50 for recombinant human CYP1B1 expressed in Escherichia coli coexpressing human NADPH-cytochrome P450 reductase.
Data set [15] addresses T4, Cytochrome P450 1A1. Kind of data set: Inhibition of recombinant human CYP1A1 expressed in Escherichia coli coexpressing human NADPH-cytochrome P450 reductase using 7-ethoxyresorufin as substrate by fluorescence spectrophotometric analysis. The format is ADME.
Data set [16] addresses T3, Cytochrome P450 1A2. Kind of data set: Inhibition of recombinant human CYP1A2 expressed in supersomes using 7-ethoxyresorufin O-deethylation as substrate after 5 mins in presence of NADP+ by spectrofluorimetric analysis. The format is ADME.

As usually defined, the IC50 is the concentration that inhibits the measured activity by half. As to `COc1ccc(-c2cc(=O)c3c(O)cc(O)cc3o2)cc1OC`, the IC50 in data set [1] came out at 19 nM. In general, Ki refers to a measure of affinity in units of concentration, obtained from inhibition or displacement. As usually defined, the kinact is the maximal first-order rate at which the target is inactivated. `CC#Cc1ccc(-c2ccccc2)cc1`: in data set [2], the inhibition constant Ki was determined as 2300 nM. Further, the kinact in data set [3] is 0.000667 s⁻¹. On to `COc1cccc(/C=C/c2ccc(SC)cc2)c1`, for which the Ki in data set [4] was found to be 30 nM; in [5], 500 nM. Take `CNCCC(Oc1ccc(C(F)(F)F)cc1)c1ccccc1` (stereo unspecified) [FLUOXETINE]: the IC50 in data set [6] is 475 µM.

Take `COc1c2ccoc2c(OC)c2oc(=O)ccc12` [ISOPIMPINELLIN]: the inhibitory constant (Ki) in data set [7] is 11 µM. As to `CC[C@H]1OC(=O)[C@H](C)[C@@H](O[C@H]2C[C@@](C)(OC)[C@@H](O)[C@H](C)O2)[C@H](C)[C@@H](O[C@@H]2O[C@H](C)C[C@H](N(C)C)[C@H]2O)[C@](C)(O)C[C@@H](C)C(=O)[C@H](C)[C@@H](O)[C@]1(C)O` [ERYTHROMYCIN], the IC50 in data set [6] came out at 40 µM. Consider `N#C[Se]Cc1cccc(C[Se]C#N)c1`, for which the 50% inhibitory concentration (IC50) was 200 to 1300 nM in data set [8], 0.13 to 0.27 µM in data set [6] and 100 to 450 nM in data set [9].

For the compound `COc1ccc(-c2coc3cc(O)ccc3c2=O)cc1` [FORMONONETIN], the Ki in [10] amounted to 3700 nM. For the compound `CC(C)=CCOc1c2occc2cc2ccc(=O)oc12` [PENTOSALEN], in data set [7], the Ki was 1 µM. `COc1ccc2cc3[n+](cc2c1OC)CCc1cc(O)c(O)cc1-3`: in data set [11], the IC50 amounted to 9.9 µM.

As to `N#C[Se]Cc1ccccc1C[Se]C#N`, the concentration for half-maximal inhibition (IC50) was 200 to 1300 nM in data set [8], 0.13 to 0.27 µM in [6] and 100 to 450 nM in [9]. For `COc1c(O)ccc2cc3[n+](cc12)CCc1cc2c(cc1-3)OCO2` [THALIDENDINE], in data set [11], the concentration for half-maximal inhibition (IC50) turned out to be 4.1 µM. In turn, `CC(C)=CCC/C(C)=C/COc1c2ccoc2cc2oc(=O)ccc12` [BERGAMOTTIN] had a Ki in data set [7] of 587 µM. Consider `COc1ccc(-c2coc3cc(O)cc(O)c3c2=O)cc1` [BIOCHANIN], for which the inhibition constant Ki in data set [10] was determined as 1900 nM.

Take `c1ccc2c(c1)ccc1cc3c(ccc4ccccc43)cc12`: the IC50 in [12] was found to be 9 nM. Consider `O=C1c2ccccc2C(=O)c2c(O)c(O)cc(O)c21` [PURPURIN], for which, in data set [13], the IC50 is 2200 nM and the Ki stood at 700 nM. In addition, the Ratio IC50 in [14] turned out to be 2.5. For the same compound, the IC50 in [15] came to 5.5 µM.

Turning to `Cc1cc(O)c2c(c1)C(=O)c1cc(O)cc(O)c1C2=O` [EMODIN], in data set [16], the 50% inhibitory concentration (IC50) is 3.73 µM.
